For data set [1], the target named is T1, ATP-binding cassette sub-family C member 2 (Homo sapiens, UniProt Q92887). As to the kind of experiment: (§1) TP_TRANSPORTER: Western in vitro, primary hepatocytes. Type of data set: functional, cell-based, Hepatocyte.
In data set [2] the target is T2, ATP-binding cassette sub-family C member 2 (Rattus norvegicus, UniProt Q63120). Described as §1. It counts as functional, cell-based, Hepatocyte.
Data set [3] addresses T1, ATP-binding cassette sub-family C member 2. As to the kind of experiment: (§2) TP_TRANSPORTER: Northern blot in vitro, primary hepatocytes. Type of data set: functional, cell-based, Hepatocyte.
Data set [4] has as its target T2, ATP-binding cassette sub-family C member 2. The description is as §2. It counts as functional, cell-based, Hepatocyte.
Data set [5] shares this target. As to the kind of experiment: TP_TRANSPORTER: Northern blot in vivo SD rat, liver. Type of data set: functional, organism-based, Sprague-Dawley.
For data set [6], the target named is Multidrug resistance protein 1a (Rattus norvegicus) (UniProt Q6PSM0). The data set is described as §2. The note with it: Hepatocyte. It counts as functional, cell-based.
Multidrug resistance protein 1a (Rattus norvegicus), sequence (Q6PSM0 as listed by the source): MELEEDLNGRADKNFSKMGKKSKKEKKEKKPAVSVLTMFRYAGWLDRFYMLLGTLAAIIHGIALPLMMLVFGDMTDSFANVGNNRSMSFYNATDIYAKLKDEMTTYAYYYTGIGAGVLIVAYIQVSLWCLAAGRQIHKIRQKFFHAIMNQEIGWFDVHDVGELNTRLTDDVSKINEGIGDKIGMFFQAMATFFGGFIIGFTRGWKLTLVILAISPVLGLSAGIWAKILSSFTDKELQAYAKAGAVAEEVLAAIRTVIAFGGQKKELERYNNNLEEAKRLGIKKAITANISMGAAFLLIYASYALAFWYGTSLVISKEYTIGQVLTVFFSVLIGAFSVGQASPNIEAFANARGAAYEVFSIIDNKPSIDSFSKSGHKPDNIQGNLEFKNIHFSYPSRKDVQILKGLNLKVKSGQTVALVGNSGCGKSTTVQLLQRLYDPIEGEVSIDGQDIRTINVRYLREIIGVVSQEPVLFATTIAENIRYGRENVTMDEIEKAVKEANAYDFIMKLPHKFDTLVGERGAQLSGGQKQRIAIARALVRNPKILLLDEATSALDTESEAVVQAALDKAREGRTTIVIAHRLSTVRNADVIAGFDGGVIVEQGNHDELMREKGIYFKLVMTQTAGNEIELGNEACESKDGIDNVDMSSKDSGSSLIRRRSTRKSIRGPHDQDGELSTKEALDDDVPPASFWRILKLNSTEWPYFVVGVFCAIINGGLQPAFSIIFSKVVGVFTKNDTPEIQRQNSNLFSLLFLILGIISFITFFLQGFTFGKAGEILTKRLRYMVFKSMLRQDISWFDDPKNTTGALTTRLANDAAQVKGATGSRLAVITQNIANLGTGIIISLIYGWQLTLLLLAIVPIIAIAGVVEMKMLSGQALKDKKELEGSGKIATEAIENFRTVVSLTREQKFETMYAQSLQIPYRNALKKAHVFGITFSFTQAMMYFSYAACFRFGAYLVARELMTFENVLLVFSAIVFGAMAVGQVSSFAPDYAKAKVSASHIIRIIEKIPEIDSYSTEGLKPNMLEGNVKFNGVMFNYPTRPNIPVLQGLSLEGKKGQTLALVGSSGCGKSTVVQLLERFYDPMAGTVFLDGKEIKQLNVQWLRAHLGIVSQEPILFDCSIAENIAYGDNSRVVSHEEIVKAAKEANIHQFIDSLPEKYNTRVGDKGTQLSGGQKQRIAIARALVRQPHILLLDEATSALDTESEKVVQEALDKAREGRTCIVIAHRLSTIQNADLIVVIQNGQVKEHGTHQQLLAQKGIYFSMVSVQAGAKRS

T2 sequence (Q63120 whole entry): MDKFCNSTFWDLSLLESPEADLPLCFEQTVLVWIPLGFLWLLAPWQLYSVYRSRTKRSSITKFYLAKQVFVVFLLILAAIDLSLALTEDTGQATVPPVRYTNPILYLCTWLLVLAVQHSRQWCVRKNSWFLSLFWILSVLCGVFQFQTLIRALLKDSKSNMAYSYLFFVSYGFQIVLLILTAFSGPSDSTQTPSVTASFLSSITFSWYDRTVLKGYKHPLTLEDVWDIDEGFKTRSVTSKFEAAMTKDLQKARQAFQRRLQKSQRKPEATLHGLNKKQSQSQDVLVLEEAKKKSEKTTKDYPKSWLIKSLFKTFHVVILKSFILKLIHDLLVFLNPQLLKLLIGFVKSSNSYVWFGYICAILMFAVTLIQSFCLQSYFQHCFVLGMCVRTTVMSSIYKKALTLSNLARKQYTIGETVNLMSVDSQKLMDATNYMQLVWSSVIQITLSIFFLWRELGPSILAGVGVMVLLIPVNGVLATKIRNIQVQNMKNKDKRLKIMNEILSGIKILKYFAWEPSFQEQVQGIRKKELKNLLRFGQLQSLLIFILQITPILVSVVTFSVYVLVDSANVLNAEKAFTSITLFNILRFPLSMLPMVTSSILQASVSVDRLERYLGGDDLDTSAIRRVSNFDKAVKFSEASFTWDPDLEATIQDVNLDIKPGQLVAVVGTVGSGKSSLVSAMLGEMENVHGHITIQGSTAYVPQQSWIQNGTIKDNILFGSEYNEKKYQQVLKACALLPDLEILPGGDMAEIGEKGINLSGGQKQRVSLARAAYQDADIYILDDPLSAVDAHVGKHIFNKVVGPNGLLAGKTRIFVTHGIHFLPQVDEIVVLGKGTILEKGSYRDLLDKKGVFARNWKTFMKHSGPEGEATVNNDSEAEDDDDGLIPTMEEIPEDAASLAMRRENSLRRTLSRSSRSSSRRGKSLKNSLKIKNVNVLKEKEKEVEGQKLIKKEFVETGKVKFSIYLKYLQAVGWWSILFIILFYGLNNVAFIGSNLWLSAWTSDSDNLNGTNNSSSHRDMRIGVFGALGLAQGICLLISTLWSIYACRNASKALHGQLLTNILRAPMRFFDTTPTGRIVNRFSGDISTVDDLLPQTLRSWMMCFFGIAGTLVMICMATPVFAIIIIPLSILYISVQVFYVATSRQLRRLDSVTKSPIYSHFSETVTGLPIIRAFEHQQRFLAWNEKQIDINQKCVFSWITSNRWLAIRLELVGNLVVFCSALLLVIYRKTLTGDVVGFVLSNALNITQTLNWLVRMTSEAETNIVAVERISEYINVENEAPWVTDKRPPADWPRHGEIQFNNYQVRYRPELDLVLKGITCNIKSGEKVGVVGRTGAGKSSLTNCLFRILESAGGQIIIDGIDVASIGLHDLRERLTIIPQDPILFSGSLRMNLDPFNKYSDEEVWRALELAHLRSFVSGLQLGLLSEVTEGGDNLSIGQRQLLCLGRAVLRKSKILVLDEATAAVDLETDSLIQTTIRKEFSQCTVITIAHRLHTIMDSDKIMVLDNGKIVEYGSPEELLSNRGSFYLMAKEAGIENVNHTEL
T1 sequence (Q92887 whole entry): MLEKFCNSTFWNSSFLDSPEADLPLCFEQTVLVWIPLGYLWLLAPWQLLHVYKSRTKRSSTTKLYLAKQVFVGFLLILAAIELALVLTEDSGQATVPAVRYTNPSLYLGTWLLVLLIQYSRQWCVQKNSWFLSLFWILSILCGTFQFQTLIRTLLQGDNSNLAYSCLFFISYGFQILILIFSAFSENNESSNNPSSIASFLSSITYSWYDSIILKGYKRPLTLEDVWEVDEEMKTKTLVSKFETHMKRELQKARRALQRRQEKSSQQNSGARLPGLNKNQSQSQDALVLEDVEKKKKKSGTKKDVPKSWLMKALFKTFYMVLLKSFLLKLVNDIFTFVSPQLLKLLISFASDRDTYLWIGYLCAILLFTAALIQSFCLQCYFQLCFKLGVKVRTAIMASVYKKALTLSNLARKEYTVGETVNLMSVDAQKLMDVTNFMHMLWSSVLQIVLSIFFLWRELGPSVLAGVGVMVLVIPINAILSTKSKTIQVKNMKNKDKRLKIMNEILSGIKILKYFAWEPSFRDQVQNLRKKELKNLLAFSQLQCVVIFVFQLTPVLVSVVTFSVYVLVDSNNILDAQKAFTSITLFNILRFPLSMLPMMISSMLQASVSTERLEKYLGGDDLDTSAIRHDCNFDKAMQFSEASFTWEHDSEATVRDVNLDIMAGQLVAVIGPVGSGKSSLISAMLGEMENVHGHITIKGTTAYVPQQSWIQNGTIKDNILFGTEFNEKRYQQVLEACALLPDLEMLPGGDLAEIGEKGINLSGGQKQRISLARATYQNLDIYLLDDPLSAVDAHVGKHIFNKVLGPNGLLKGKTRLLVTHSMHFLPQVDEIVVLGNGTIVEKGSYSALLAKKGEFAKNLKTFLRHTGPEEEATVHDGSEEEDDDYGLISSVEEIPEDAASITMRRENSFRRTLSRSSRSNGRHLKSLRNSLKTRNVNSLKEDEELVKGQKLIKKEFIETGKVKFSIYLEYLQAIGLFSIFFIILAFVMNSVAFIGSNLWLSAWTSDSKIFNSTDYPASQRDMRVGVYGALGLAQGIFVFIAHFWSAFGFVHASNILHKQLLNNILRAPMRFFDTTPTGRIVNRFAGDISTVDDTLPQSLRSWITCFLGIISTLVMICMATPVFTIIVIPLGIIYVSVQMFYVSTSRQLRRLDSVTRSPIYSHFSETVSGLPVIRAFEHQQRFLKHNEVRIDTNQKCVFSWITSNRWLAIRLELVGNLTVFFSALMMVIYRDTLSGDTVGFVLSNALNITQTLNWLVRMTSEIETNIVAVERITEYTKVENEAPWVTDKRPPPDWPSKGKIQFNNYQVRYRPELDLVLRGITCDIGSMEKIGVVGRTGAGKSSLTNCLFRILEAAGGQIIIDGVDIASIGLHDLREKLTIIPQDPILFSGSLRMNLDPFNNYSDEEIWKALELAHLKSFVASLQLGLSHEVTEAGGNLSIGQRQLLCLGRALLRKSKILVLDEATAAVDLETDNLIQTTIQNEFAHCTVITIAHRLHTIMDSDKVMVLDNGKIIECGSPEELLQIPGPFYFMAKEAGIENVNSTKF

For `CCC1(c2ccccc2)C(=O)NC(=O)NC1=O` [PHENOBARBITAL], the Activity result in data set [1] is “inducer [+]”; in data set [2], “inducer [+]”; in data set [3], “inducer [+]”; in data set [4], “inducer [+]”; in data set [5] it was “is not an inducer [-]”; in data set [6] it was “is not an inducer [-]”.

The record behind these values is ChEMBL document CHEMBL2073981, “Differential regulation of multidrug resistance-associated protein 2 (MRP2) and cytochromes P450 2B1/2 and 3A1/2 in phenobarbital-treated hepatocytes” (Biochem Pharmacol, 2002).
